# Laboratory results from patent US20240083857A1, “2-Methyl-Quinazolines” (Bayer Pharma Aktiengesellschaft, priority 2017, published 2024).
# Where a name gives a salt, the structure may show the parent alone.
# How the values were obtained:
# [1] = target: human SOS1 (nucleotide exchange of K-Ras^G12C) (Homo sapiens, UniProt Q07889); assay: Biochemical assay 2: K-Ras^G12C activation assay by hSOS1 at high GTP concentration (HTRF); conditions: high GTP; read-out: Assay 2 (KRAS-Activation by SOS high GTP) activity expressed as IC50
# [2] = target: Epidermal Growth Factor Receptor (EGFR) (Homo sapiens (Human), UniProt P00533); assay: EGFR kinase assay (TR-FRET); assay type: biochemical; conditions: values given in μM; read-out: EGFR kinase inhibition IC50
# Chain of Epidermal Growth Factor Receptor (EGFR) (P00533 25-1210): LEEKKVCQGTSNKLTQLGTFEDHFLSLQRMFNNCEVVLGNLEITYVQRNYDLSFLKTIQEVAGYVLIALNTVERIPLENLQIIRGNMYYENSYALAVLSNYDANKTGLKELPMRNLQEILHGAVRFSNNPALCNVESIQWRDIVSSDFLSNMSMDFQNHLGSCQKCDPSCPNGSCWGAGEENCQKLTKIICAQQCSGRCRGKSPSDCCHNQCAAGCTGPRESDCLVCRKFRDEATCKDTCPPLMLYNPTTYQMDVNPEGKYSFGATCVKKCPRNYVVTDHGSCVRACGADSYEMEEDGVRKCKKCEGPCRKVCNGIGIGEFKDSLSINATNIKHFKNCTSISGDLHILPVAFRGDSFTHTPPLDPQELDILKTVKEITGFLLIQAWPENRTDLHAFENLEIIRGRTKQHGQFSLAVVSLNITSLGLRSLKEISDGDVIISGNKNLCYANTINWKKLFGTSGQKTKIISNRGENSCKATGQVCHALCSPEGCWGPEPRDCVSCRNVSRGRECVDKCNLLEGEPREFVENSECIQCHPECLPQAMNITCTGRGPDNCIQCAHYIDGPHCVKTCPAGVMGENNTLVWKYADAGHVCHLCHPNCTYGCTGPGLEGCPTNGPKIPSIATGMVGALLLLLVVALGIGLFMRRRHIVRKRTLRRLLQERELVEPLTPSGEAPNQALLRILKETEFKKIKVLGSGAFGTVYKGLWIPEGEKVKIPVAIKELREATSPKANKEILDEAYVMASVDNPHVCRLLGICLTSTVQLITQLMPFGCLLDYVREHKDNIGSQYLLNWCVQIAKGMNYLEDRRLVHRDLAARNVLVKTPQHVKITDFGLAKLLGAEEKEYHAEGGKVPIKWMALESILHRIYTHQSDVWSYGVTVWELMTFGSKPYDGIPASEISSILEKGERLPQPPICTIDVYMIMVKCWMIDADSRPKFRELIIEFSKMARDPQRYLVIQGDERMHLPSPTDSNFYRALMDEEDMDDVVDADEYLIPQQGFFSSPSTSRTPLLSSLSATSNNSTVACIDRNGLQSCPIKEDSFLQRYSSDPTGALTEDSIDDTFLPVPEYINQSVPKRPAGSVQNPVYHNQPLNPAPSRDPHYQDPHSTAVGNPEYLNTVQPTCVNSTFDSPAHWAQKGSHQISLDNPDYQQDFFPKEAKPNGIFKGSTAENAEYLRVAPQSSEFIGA
# Summary of the method: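 Read-out is the 665/620 nm HTRF ratio, from a Tb-cryptate anti-phosphotyrosine antibody and streptavidin-XL665 bound to phosphorylated biotin-peptide substrate. The enzyme, A431-derived EGFR (~3 U/ml), was given 15 min compound pre-binding at 22° C in Hepes pH 7.0 with Mg2+/Mn2+ before reaction.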
compound,measurement,setting,value
"COc1cc2nc(C)nc(NC(C)c3ccc(-c4cc(C)n(C)c4C#N)s3)c2cc1OC (stereo not shown) [Example 286, 3-(5-{1-[(6,7-dimethoxy-2-methylquinazolin-4-yl)amino]ethyl}thiophen-2-yl)-1,5-dimethyl-1H-pyrrole-2-carbonitrile]",IC50,[1],17400 nM
same,IC50,[2],> 20 µM
"COc1cc2nc(C)nc(NC(C)c3ccc(-c4cscc4C#N)s3)c2cc1OC (stereo not shown) [Example 287, 5-{1-[(6,7-dimethoxy-2-methylquinazolin-4-yl)amino]ethyl}-2,3′-bithiophene-4′-carbonitrile]",IC50,[1],1860 nM
same,IC50,[2],> 20 µM
"CCN(CC)Cc1ccccc1-c1ccc(C(C)Nc2nc(C)nc3cc(OC)c(OC)cc23)s1 (stereo not shown) [Example 288, N-[1-(5-{2-[(diethylamino)methyl]phenyl}thiophen-2-yl)ethyl]-6,7-dimethoxy-2-methylquinazolin-4-amine]",IC50,[1],140 nM
same,IC50,[2],> 20 µM
"COc1cc2nc(C)nc(NC(C)c3ccc(-c4ccccc4CN4CCCC(C(N)=O)C4)s3)c2cc1OC (stereo not shown) [Example 290, 1-[2-(5-{1-[(6,7-dimethoxy-2-methylquinazolin-4-yl)amino]ethyl}thiophen-2-yl)benzyl]piperidine-3-carboxamide]",IC50,[1],116 nM
same,IC50,[2],> 20 µM
"COc1cc2nc(C)nc(NC(C)c3ccc(-c4ccccc4CN(C)CC(F)F)s3)c2cc1OC (stereo not shown) [Example 291, N-{1-[5-(2-{[(2,2-difluoroethyl)(methyl)amino]methyl}phenyl)thiophen-2-yl]ethyl}-6,7-dimethoxy-2-methylquinazolin-4-amine]",IC50,[1],1320 nM
same,IC50,[2],> 20 µM
"COc1cc2nc(C)nc(NC(C)c3ccc(-c4cc(Cl)ccc4CN)s3)c2cc1OC (stereo not shown) [Example 292, N-[1-{5-[2-(aminomethyl)-5-chlorophenyl]thiophen-2-yl}ethyl]-6,7-dimethoxy-2-methylquinazolin-4-amine]",IC50,[1],38.7 nM
same,IC50,[2],> 20 µM
"COc1cc2nc(C)nc(NC(C)c3ccc(-c4ccc(F)cc4CNC(=O)c4ncc[nH]4)s3)c2cc1OC (stereo not shown) [Example 293, N-[2-(5-{1-[(6,7-dimethoxy-2-methylquinazolin-4-yl)amino]ethyl}thiophen-2-yl)-5-fluorobenzyl]-1H-imidazole-2-carboxamide]",IC50,[1],3920 nM
same,IC50,[2],> 20 µM
"COc1cc2nc(C)nc(NC(C)c3ccc(-c4ccc(F)cc4CNC(=O)c4cnc[nH]4)s3)c2cc1OC (stereo not shown) [Example 294, N-[2-(5-{1-[(6,7-dimethoxy-2-methylquinazolin-4-yl)amino]ethyl}thiophen-2-yl)-5-fluorobenzyl]-1H-imidazole-5-carboxamide]",IC50,[1],3930 nM
same,IC50,[2],> 20 µM
"COc1cc2nc(C)nc(NC(C)c3ccc(-c4ccc(F)cc4CNC(=O)CNCC(F)(F)F)s3)c2cc1OC (stereo not shown) [Example 295, N-[2-(5-{1-[(6,7-dimethoxy-2-methylquinazolin-4-yl)amino]ethyl}thiophen-2-yl)-5-fluorobenzyl]-N^2-(2,2,2-trifluoroethyl)glycinamide]",IC50,[1],1470 nM
same,IC50,[2],> 20 µM
"COc1cc2nc(C)nc(NC(C)c3ccc(-c4ccccc4CNCCO)s3)c2cc1OC (stereo not shown) [Example 297, 2-{[2-(5-{1-[(6,7-dimethoxy-2-methylquinazolin-4-yl)amino]ethyl}thiophen-2-yl)benzyl]amino}ethanol]",IC50,[1],57.8 nM
same,IC50,[2],> 20 µM
"COc1cc2nc(C)nc(NC(C)c3ccc(-c4ccccc4CN(C)CCO)s3)c2cc1OC (stereo not shown) [Example 298, 2-{[2-(5-{1-[(6,7-dimethoxy-2-methylquinazolin-4-yl)amino]ethyl}thiophen-2-yl)benzyl](methyl)amino}ethanol]",IC50,[1],49.3 nM
same,IC50,[2],> 20 µM
"COc1cc2nc(C)nc(NC(C)c3ccc(-c4ccc(F)cc4CNC(=O)CNc4ccccc4)s3)c2cc1OC (stereo not shown) [Example 299, N-[2-(5-{1-[(6,7-dimethoxy-2-methylquinazolin-4-yl)amino]ethyl}thiophen-2-yl)-5-fluorobenzyl]-N^2-phenylglycinamide]",IC50,[1],1230 nM
same,IC50,[2],> 20 µM
"COc1cc2nc(C)nc(NC(C)c3ccc(-c4ccccc4CNCC(F)(F)F)s3)c2cc1OC (stereo not shown) [Example 300, 6,7-di methoxy-2-methyl-N-{1-[5-(2-{[(2,2,2-trifluoroethyl)amino]methyl}phenyl)thiophen-2-yl]ethyl}quinazolin-4-amine]",IC50,[1],3070 nM
same,IC50,[2],> 20 µM
"COc1cc2nc(C)nc(NC(C)c3ccc(-c4ccccc4CNc4ccccn4)s3)c2cc1OC (stereo not shown) [Example 301, 6,7-di methoxy-2-methyl-N-[1-(5-{2-[(pyridin-2-ylamino)methyl]phenyl}thiophen-2-yl)ethyl]quinazolin-4-amine]",IC50,[1],931 nM
same,IC50,[2],> 20 µM
"COc1cc2nc(C)nc(NC(C)c3ccc(-c4ccccc4CNc4cc[nH]n4)s3)c2cc1OC (stereo not shown) [Example 302, 6,7-dimethoxy-2-methyl-N-[1-(5-{2-[(1H-pyrazol-3-ylamino)methyl]phenyl}thiophen-2-yl)ethyl]quinazolin-4-amine]",IC50,[1],1260 nM
same,IC50,[2],> 20 µM
"COc1cc2nc(C)nc(NC(C)c3ccc(-c4ccccc4CNCC(=O)N4CCc5ccccc5C4)s3)c2cc1OC (stereo not shown) [Example 303, 1-(3,4-dihydroisoquinolin-2(1H)-yl)-2-{[2-(5-{1-[(6,7-dimethoxy-2-methylquinazolin-4-yl)amino]ethyl}thiophen-2-yl)benzyl]amino}ethanone]",IC50,[1],840 nM
same,IC50,[2],> 20 µM
"COc1cc2nc(C)nc(NC(C)c3ccc(-c4ccc(F)cc4CNCc4nccn4C)s3)c2cc1OC (stereo not shown) [Example 304, N-[1-{5-[4-fluoro-2-({[(1-methyl-1H-imidazol-2-yl)methyl]amino}methyl)phenyl]thiophen-2-yl}ethyl]-6,7-dimethoxy-2-methylquinazolin-4-amine]",IC50,[1],469 nM
same,IC50,[2],> 20 µM
"COc1cc2nc(C)nc(NC(C)c3ccc(-c4ccccc4CN4CCNCC4)s3)c2cc1OC (stereo not shown) [Example 305, 6,7-dimethoxy-2-methyl-N-[1-{5-[2-(piperazin-1-ylmethyl)phenyl]thiophen-2-yl}ethyl]quinazolin-4-amine hydrochloride]",IC50,[1],55.2 nM
same,IC50,[2],> 20 µM
"COc1cc2nc(C)nc(NC(C)c3ccc(-c4ccc(F)cc4CNC(C)=O)s3)c2cc1OC (stereo not shown) [Example 307, N-[2-(5-{1-[(6,7-dimethoxy-2-methylquinazolin-4-yl)amino]ethyl}thiophen-2-yl)-5-fluorobenzyl]acetamide]",IC50,[1],593 nM
same,IC50,[2],> 20 µM
"COc1cc2nc(C)nc(NC(C)c3ccc(-c4ccccc4CN4CCN(C)CC4)s3)c2cc1OC (stereo not shown) [Example 308, 6,7-dimethoxy-2-methyl-N-[1-(5-{2-[(4-methylpiperazin-1-yl)methyl]phenyl}thiophen-2-yl)ethyl]quinazolin-4-amine]",IC50,[1],229 nM
same,IC50,[2],> 20 µM
"COc1cc2nc(C)nc(NC(C)c3ccc(-c4ccccc4CN[C@H]4CCN(C)C4=O)s3)c2cc1OC (stereo partly drawn) [Example 309, (3S)-{[2-(5-{1-[(6,7-dimethoxy-2-methylquinazolin-4-yl)amino]ethyl}thiophen-2-yl)benzyl]amino}-1-methylpyrrolidin-2-one]",IC50,[1],690 nM
same,IC50,[2],> 20 µM
"COc1cc2nc(C)nc(NC(C)c3ccc(-c4ccc(F)cc4CNC(=O)c4cc[nH]n4)s3)c2cc1OC (stereo not shown) [Example 310, N-[2-(5-{1-[(6,7-dimethoxy-2-methylquinazolin-4-yl)amino]ethyl}thiophen-2-yl)-5-fluorobenzyl]-1H-pyrazole-3-carboxamide]",IC50,[1],1340 nM
same,IC50,[2],> 20 µM
"COc1cc2nc(C)nc(NC(C)c3ccc(-c4ccccc4CN4CCOCC4)s3)c2cc1OC (stereo not shown) [Example 311, 6,7-dimethoxy-2-methyl-N-[1-{5-[2-(morpholin-4-ylmethyl)phenyl]thiophen-2-yl}ethyl]quinazolin-4-amine]",IC50,[1],513 nM
same,IC50,[2],> 20 µM
"COc1cc2nc(C)nc(NC(C)c3ccc(-c4ccccc4CN4CC(O)C4)s3)c2cc1OC (stereo not shown) [Example 312, 1-[2-(5-{1-[(6,7-dimethoxy-2-methylquinazolin-4-yl)amino]ethyl}thiophen-2-yl)benzyl]azetidin-3-ol]",IC50,[1],66.5 nM
same,IC50,[2],> 20 µM
"COc1cc2nc(C)nc(NC(C)c3ccc(-c4ccccc4CN4CC5(CNC(=O)N5)C4)s3)c2cc1OC (stereo not shown) [Example 313, 2-[2-(5-{1-[(6,7-dimethoxy-2-methylquinazolin-4-yl)amino]ethyl}thiophen-2-yl)benzyl]-2,5,7-triazaspiro[3.4]octan-6-one]",IC50,[1],162 nM
same,IC50,[2],> 20 µM
"COc1cc2nc(C)nc(NC(C)c3ccc(-c4ccc(F)cc4CNC(=O)[C@@H]4CCCN4)s3)c2cc1OC (stereo partly drawn) [Example 314, N-[2-(5-{1-[(6,7-dimethoxy-2-methylquinazolin-4-yl)amino]ethyl}thiophen-2-yl)-5-fluorobenzyl]-L-prolinamide]",IC50,[1],87.3 nM
same,IC50,[2],> 20 µM
"COc1cc2nc(C)nc(NC(C)c3ccc(-c4ccccc4CNCC(F)F)s3)c2cc1OC (stereo not shown) [Example 315, N-{1-[5-(2-{[(2,2-difluoroethyl)amino]methyl}phenyl)thiophen-2-yl]ethyl}-6,7-dimethoxy-2-methylquinazolin-4-amine]",IC50,[1],967 nM
same,IC50,[2],> 20 µM
"COc1cc2nc(C)nc(NC(C)c3ccc(-c4ccccc4CN4CCC4)s3)c2cc1OC (stereo not shown) [Example 317, N-[1-{5-[2-(azetidin-1-ylmethyl)phenyl]thiophen-2-yl}ethyl]-6,7-dimethoxy-2-methylquinazolin-4-amine]",IC50,[1],62.7 nM
same,IC50,[2],> 20 µM
"COc1cc2nc(C)nc(NC(C)c3ccc(-c4ccccc4CN4CC[C@H]4CO)s3)c2cc1OC (stereo partly drawn) [Example 318, {1-[(2S)-(5-{1-[(6,7-dimethoxy-2-methylquinazolin-4-yl)amino]ethyl}thiophen-2-yl)benzyl]azetidin-2-yl}methanol]",IC50,[1],167 nM
same,IC50,[2],> 20 µM
